Assays:
beta amyloid (Aβ1-42) = target: T1, beta amyloid (Aβ1-42) (Homo sapiens, UniProt P05067); experiment: Inhibition of beta amyloid aggregation, fluorescence analysis (ThioflavinT assay); type: biochemical
T1 construct: beta amyloid (Aβ1-42, AnaSpec Inc, USA); purchased AnaSpec Inc, USA
Protocol: The effect of kaempferol3-O-[2-O″-(E)-p-coumaroyl][beta-D-glucopyranosyl-(1→3)-O-alpha-L-rhamnopyranosyl-(1→6)-O-beta-D-glucopyranoside] on inhibition of beta amyloid aggregation was confirmed by the fluorescence analysis (ThioflavinT assay). Specifically, beta amyloid (Aβ1-42, AnaSpec Inc, USA) was obtained and used at a concentration of 0.1 mg/ml and stored at −80° C. before use. Morin (20 μM), phenol red (20 μM), and kaempferol3-O-[2-O″-(E)-p-coumaroyl][beta-D-glucopyranosyl-(1→3)-O-alpha-L-rhamnopyranosyl-(1→6)-O-beta-D-glucopyranoside] (1 mg/ml) were respectively diluted with DMSO so as to be adjusted to the concentrations. In order to specify the degree of inhibition of Aβ1-42 aggregation, each of the compounds prepared at the above concentrations was diluted with 50 μL of 0.01 M sodium phosphate buffer solution to have a concentration of 10 μM, then 40 μL of 0.1 mg/ml of Aβ1-42 was added thereto, and then 10 μl of 2 mM thioflavinT was added thereto, and fluorescence was measured using a fluorescence spectrometer (RF-5300PC, SHIMADZU CORPORATION, Japan) at 37° C. for 150 minutes at intervals of 5 minutes. In the above table, “RFU” denotes the relative fluorescence unit, and “Increased RFU” denotes the amount of aggregated beta amyloid, and “Increased RFU (% of Pos.Cont.)” denotes the percentage value of the amount of aggregated beta amyloid with respect to that of the positive control group. “Novel substance 33” denotes kaempferol3-O-[2-O″-(E)-p-coumaroyl][beta-D-glucopyranosyl-(1→3)-O-alpha-L-rhamnopyranosyl-(1→6)-O-beta-D-glucopyranoside].

healthy adult subjects = experiment: Human repeated insult patch test (HRIPT), cumulative skin irritation; type: in vivo; conditions: for Number of subjects showed ± reactivity, 1st time / Number of subjects showed + reactivity, 1st time / Number of subjects showed ++ reactivity, 1st time: 1st patch; for Number of subjects showed ± reactivity, 1st time / Number of subjects showed ± reactivity, 2nd time / Number of subjects showed ± reactivity, 3rd time / Number of subjects showed ± reactivity, 4th time / Number of subjects showed ± reactivity, 5th time / Number of subjects showed ± reactivity, 6th time / Number of subjects showed ± reactivity, 7th time / Number of subjects showed ± reactivity, 8th time / Number of subjects showed ± reactivity, 9th time: 1st of 3 lines (±); for Number of subjects showed + reactivity, 1st time / Number of subjects showed + reactivity, 2nd time / Number of subjects showed + reactivity, 3rd time / Number of subjects showed + reactivity, 4th time / Number of subjects showed + reactivity, 5th time / Number of subjects showed + reactivity, 6th time / Number of subjects showed + reactivity, 7th time / Number of subjects showed + reactivity, 8th time / Number of subjects showed + reactivity, 9th time: 2nd of 3 lines (+); for Number of subjects showed ++ reactivity, 1st time / Number of subjects showed ++ reactivity, 2nd time / Number of subjects showed ++ reactivity, 3rd time / Number of subjects showed ++ reactivity, 4th time / Number of subjects showed ++ reactivity, 5th time / Number of subjects showed ++ reactivity, 6th time / Number of subjects showed ++ reactivity, 7th time / Number of subjects showed ++ reactivity, 8th time / Number of subjects showed ++ reactivity, 9th time: 3rd of 3 lines (++); for Number of subjects showed ± reactivity, 2nd time / Number of subjects showed + reactivity, 2nd time / Number of subjects showed ++ reactivity, 2nd time: 2nd patch; for Number of subjects showed ± reactivity, 3rd time / Number of subjects showed + reactivity, 3rd time / Number of subjects showed ++ reactivity, 3rd time: 3rd patch; for Number of subjects showed ± reactivity, 4th time / Number of subjects showed + reactivity, 4th time / Number of subjects showed ++ reactivity, 4th time: 4th patch; for Number of subjects showed ± reactivity, 5th time / Number of subjects showed + reactivity, 5th time / Number of subjects showed ++ reactivity, 5th time: 5th patch; for Number of subjects showed ± reactivity, 6th time / Number of subjects showed + reactivity, 6th time / Number of subjects showed ++ reactivity, 6th time: 6th patch; for Number of subjects showed ± reactivity, 7th time / Number of subjects showed + reactivity, 7th time / Number of subjects showed ++ reactivity, 7th time: 7th patch; for Number of subjects showed ± reactivity, 8th time / Number of subjects showed + reactivity, 8th time / Number of subjects showed ++ reactivity, 8th time: 8th patch; for Average reactivity: 9 patches over three weeks, safe when less than 3; for Number of subjects showed ± reactivity, 9th time / Number of subjects showed + reactivity, 9th time / Number of subjects showed ++ reactivity, 9th time: 9th patch
Protocol: Human repeated insult patch tests (HRIPT) were conducted to determine the cumulative skin irritation by kaempferol3-O-[2-O″-(E)-p-coumaroyl][beta-D-glucopyranosyl-(1→3)-O-alpha-L-rhamnopyranosyl-(1→6)-O-beta-D-glucopyranoside] and to calculate the concentration range in which kaempferol3-O-[2-O″-(E)-p-coumaroyl][beta-D-glucopyranosyl-(1→3)-O-alpha-L-rhamnopyranosyl-(1→6)-O-beta-D-glucopyranoside] can be used on the skin.
Specifically, 15 healthy adult subjects were randomly selected, the test compositions (compositions for skin containing an emulsifier, a stabilizer, purified water, and the like in addition to the compound) containing the compound at 0.5 wt %, 1 wt %, and 3 wt % were dropped by 20 μl per chamber (IQ chamber, Epitest Ltd, Finland), and the patch was applied to the right side of the upper back of the subject and then replaced with new one after 24 hours. The skin reaction was examined before and after the patch test while the patch test was conducted three times a week and thus nine times for three weeks in total in this manner, the skin reaction was observed until the 48th hour after removal of the final patch, and the average reactivity was determined.
The skin reaction was judged according to the criteria of the International Contact Dermatitis Research Group (ICDRG). In the above table, “Novel substance 33” denotes kaempferol3-O-[2-O″-(E)-p-coumaroyl][beta-D-glucopyranosyl-(1→3)-O-alpha-L-rhamnopyranosyl-(1→6)-O-beta-D-glucopyranoside].

T1 sequence (P05067 672-713 limits assumed): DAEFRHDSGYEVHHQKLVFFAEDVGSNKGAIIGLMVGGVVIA

SMILES: CC1OC(OCC2OC(Oc3c(-c4ccc(O)cc4)oc4cc(O)cc(O)c4c3=O)C(OC(=O)/C=C/c3ccc(O)cc3)C(O)C2O)C(O)C(OC2OC(CO)C(O)C(O)C2O)C1O [Novel substance 33, kaempferol3-O-[2-O″-(E)-p-coumaroyl][beta-D-glucopyranosyl-(1→3)-O-alpha-L-rhamnopyranosyl-(1→6)-O-beta-D-glucopyranoside]]
- Increased RFU (% of Pos. Cont.) (beta amyloid (Aβ1-42); compound 10 μM, Aβ1-42 0.1 mg/ml, 37° C., 150 minutes, Pos. Cont. (beta amyloid only) = 100): 77.0%
- Increased RFU (amount of aggregated beta amyloid) (beta amyloid (Aβ1-42); compound 10 μM, Aβ1-42 0.1 mg/ml, thioflavinT, 37° C., 150 minutes): 11235 RFU
- inhibition of beta amyloid aggregation as compared with the positive control group (beta amyloid (Aβ1-42); positive control (only beta amyloid, no compound) taken as 100%): 23.0%
- Number of subjects showed ± reactivity, 1st time (healthy adult subjects; 0.5 wt %): 0 persons
- Number of subjects showed + reactivity, 1st time (healthy adult subjects; 0.5 wt %): 0 persons
- Number of subjects showed ++ reactivity, 1st time (healthy adult subjects; 0.5 wt %): 0 persons
- Number of subjects showed ± reactivity, 2nd time (healthy adult subjects; 0.5 wt %): 0 persons
- Number of subjects showed + reactivity, 2nd time (healthy adult subjects; 0.5 wt %): 0 persons
- Number of subjects showed ++ reactivity, 2nd time (healthy adult subjects; 0.5 wt %): 0 persons
- Number of subjects showed ± reactivity, 3rd time (healthy adult subjects; 0.5 wt %): 0 persons
- Number of subjects showed + reactivity, 3rd time (healthy adult subjects; 0.5 wt %): 0 persons
- Number of subjects showed ++ reactivity, 3rd time (healthy adult subjects; 0.5 wt %): 0 persons
- Number of subjects showed ± reactivity, 4th time (healthy adult subjects; 0.5 wt %): 0 persons
- Number of subjects showed + reactivity, 4th time (healthy adult subjects; 0.5 wt %): 0 persons
- Number of subjects showed ++ reactivity, 4th time (healthy adult subjects; 0.5 wt %): 0 persons
- Number of subjects showed ± reactivity, 5th time (healthy adult subjects; 0.5 wt %): 0 persons
- Number of subjects showed + reactivity, 5th time (healthy adult subjects; 0.5 wt %): 0 persons
- Number of subjects showed ++ reactivity, 5th time (healthy adult subjects; 0.5 wt %): 0 persons
- Number of subjects showed ± reactivity, 6th time (healthy adult subjects; 0.5 wt %): 0 persons
- Number of subjects showed + reactivity, 6th time (healthy adult subjects; 0.5 wt %): 0 persons
- Number of subjects showed ++ reactivity, 6th time (healthy adult subjects; 0.5 wt %): 0 persons
- Number of subjects showed ± reactivity, 7th time (healthy adult subjects; 0.5 wt %): 0 persons
- Number of subjects showed + reactivity, 7th time (healthy adult subjects; 0.5 wt %): 0 persons
- Number of subjects showed ++ reactivity, 7th time (healthy adult subjects; 0.5 wt %): 0 persons
- Number of subjects showed ± reactivity, 8th time (healthy adult subjects; 0.5 wt %): 0 persons
- Number of subjects showed + reactivity, 8th time (healthy adult subjects; 0.5 wt %): 0 persons
- Number of subjects showed ++ reactivity, 8th time (healthy adult subjects; 0.5 wt %): 0 persons
- Average reactivity (healthy adult subjects; 0.5 wt %): 0
- Number of subjects showed ± reactivity, 9th time (healthy adult subjects; 0.5 wt %): 0 persons
- Number of subjects showed + reactivity, 9th time (healthy adult subjects; 0.5 wt %): 0 persons
- Number of subjects showed ++ reactivity, 9th time (healthy adult subjects; 0.5 wt %): 0 persons
- Number of subjects showed ± reactivity, 1st time (healthy adult subjects; 1 wt %): 0 persons
- Number of subjects showed + reactivity, 1st time (healthy adult subjects; 1 wt %): 0 persons
- Number of subjects showed ++ reactivity, 1st time (healthy adult subjects; 1 wt %): 0 persons
- Number of subjects showed ± reactivity, 2nd time (healthy adult subjects; 1 wt %): 0 persons
- Number of subjects showed + reactivity, 2nd time (healthy adult subjects; 1 wt %): 0 persons
- Number of subjects showed ++ reactivity, 2nd time (healthy adult subjects; 1 wt %): 0 persons
- Number of subjects showed ± reactivity, 3rd time (healthy adult subjects; 1 wt %): 0 persons
- Number of subjects showed + reactivity, 3rd time (healthy adult subjects; 1 wt %): 0 persons
- Number of subjects showed ++ reactivity, 3rd time (healthy adult subjects; 1 wt %): 0 persons
- Number of subjects showed ± reactivity, 4th time (healthy adult subjects; 1 wt %): 0 persons
- Number of subjects showed + reactivity, 4th time (healthy adult subjects; 1 wt %): 0 persons
- Number of subjects showed ++ reactivity, 4th time (healthy adult subjects; 1 wt %): 0 persons
- Number of subjects showed ± reactivity, 5th time (healthy adult subjects; 1 wt %): 0 persons
- Number of subjects showed + reactivity, 5th time (healthy adult subjects; 1 wt %): 0 persons
- Number of subjects showed ++ reactivity, 5th time (healthy adult subjects; 1 wt %): 0 persons
- Number of subjects showed ± reactivity, 6th time (healthy adult subjects; 1 wt %): 0 persons
- Number of subjects showed + reactivity, 6th time (healthy adult subjects; 1 wt %): 0 persons
- Number of subjects showed ++ reactivity, 6th time (healthy adult subjects; 1 wt %): 0 persons
- Number of subjects showed ± reactivity, 7th time (healthy adult subjects; 1 wt %): 0 persons
- Number of subjects showed + reactivity, 7th time (healthy adult subjects; 1 wt %): 0 persons
- Number of subjects showed ++ reactivity, 7th time (healthy adult subjects; 1 wt %): 0 persons
- Number of subjects showed ± reactivity, 8th time (healthy adult subjects; 1 wt %): 0 persons
- Number of subjects showed + reactivity, 8th time (healthy adult subjects; 1 wt %): 0 persons
- Number of subjects showed ++ reactivity, 8th time (healthy adult subjects; 1 wt %): 0 persons
- Average reactivity (healthy adult subjects; 1 wt %): 0
- Number of subjects showed ± reactivity, 9th time (healthy adult subjects; 1 wt %): 0 persons
- Number of subjects showed + reactivity, 9th time (healthy adult subjects; 1 wt %): 0 persons
- Number of subjects showed ++ reactivity, 9th time (healthy adult subjects; 1 wt %): 0 persons
- Number of subjects showed ± reactivity, 1st time (healthy adult subjects; 3 wt %): 0 persons
- Number of subjects showed + reactivity, 1st time (healthy adult subjects; 3 wt %): 0 persons
- Number of subjects showed ++ reactivity, 1st time (healthy adult subjects; 3 wt %): 0 persons
- Number of subjects showed ± reactivity, 2nd time (healthy adult subjects; 3 wt %): 0 persons
- Number of subjects showed + reactivity, 2nd time (healthy adult subjects; 3 wt %): 0 persons
- Number of subjects showed ++ reactivity, 2nd time (healthy adult subjects; 3 wt %): 0 persons
- Number of subjects showed ± reactivity, 3rd time (healthy adult subjects; 3 wt %): 0 persons
- Number of subjects showed + reactivity, 3rd time (healthy adult subjects; 3 wt %): 0 persons
- Number of subjects showed ++ reactivity, 3rd time (healthy adult subjects; 3 wt %): 0 persons
- Number of subjects showed ± reactivity, 4th time (healthy adult subjects; 3 wt %): 0 persons
- Number of subjects showed + reactivity, 4th time (healthy adult subjects; 3 wt %): 0 persons
- Number of subjects showed ++ reactivity, 4th time (healthy adult subjects; 3 wt %): 0 persons
- Number of subjects showed ± reactivity, 5th time (healthy adult subjects; 3 wt %): 0 persons
- Number of subjects showed + reactivity, 5th time (healthy adult subjects; 3 wt %): 0 persons
- Number of subjects showed ++ reactivity, 5th time (healthy adult subjects; 3 wt %): 0 persons
- Number of subjects showed ± reactivity, 6th time (healthy adult subjects; 3 wt %): 0 persons
- Number of subjects showed + reactivity, 6th time (healthy adult subjects; 3 wt %): 0 persons
- Number of subjects showed ++ reactivity, 6th time (healthy adult subjects; 3 wt %): 0 persons
- Number of subjects showed ± reactivity, 7th time (healthy adult subjects; 3 wt %): 0 persons
- Number of subjects showed + reactivity, 7th time (healthy adult subjects; 3 wt %): 0 persons
- Number of subjects showed ++ reactivity, 7th time (healthy adult subjects; 3 wt %): 0 persons
- Number of subjects showed ± reactivity, 8th time (healthy adult subjects; 3 wt %): 0 persons
- Number of subjects showed + reactivity, 8th time (healthy adult subjects; 3 wt %): 0 persons
- Number of subjects showed ++ reactivity, 8th time (healthy adult subjects; 3 wt %): 0 persons
- Average reactivity (healthy adult subjects; 3 wt %): 0
- Number of subjects showed ± reactivity, 9th time (healthy adult subjects; 3 wt %): 0 persons
- Number of subjects showed + reactivity, 9th time (healthy adult subjects; 3 wt %): 0 persons
- Number of subjects showed ++ reactivity, 9th time (healthy adult subjects; 3 wt %): 0 persons
- cumulative skin irritation (healthy adult subjects; HRIPT, 0.5 to 3 wt %): without cumulative skin irritation
